# Experimental data from paper PMC10208570, “Peptidomimetic antibiotics disrupt the lipopolysaccharide transport bridge of drug-resistant Enterobacteriaceae” (Science Advances, 2023).
# Where a SMILES comes first, the peptide text is derived from it. Bridges are numbered along the chain shown (N, C = ends). [ ]: non-standard residue; d: D form. The star is where a group is joined. X1 = CC1(CCCCS(=O)(=O)O)C(/C=C/C=C/C=C2/N(CCCS(=O)(=O)O)c3ccc(S(=O)(=O)O)cc3C2(C)C)=[N+](CCCCCC(=O)NCc2cn(CCOCCOCCOCCOCCC(=O)*)nn2)c2ccc(S(=O)(=O)[O-])cc21; Hyp = O=C(O)[C@@H]1C[C@@H](O)CN1; Pen = CC(C)(S)[C@H](N)C(=O)O; dDab = NCC[C@@H](N)C(=O)O; Dab = NCC[C@H](N)C(=O)O
# Key:
# [1] = molecular target: T1, LptAm (Escherichia coli, UniProt P0ADV1); assay: FP direct binding assay; design: species or system E. coli
# T1 construct: His6-GB1 (N, cleaved yes); made in house; host or cells: E. coli BL21 (DE3)
# Method: (§8) Anisotropy for the blank, the fluorescently labeled peptide only (6-FL only), was measured and subtracted from r to yield r′. The r′ data were normalized and fit to the One site − Total model on GraphPad Prism 9. A nonspecific binding factor (NS) was determined using a linear regression model (y = NS ∗ X + b) at the highest concentrations and incorporated into the fit. The dissociation constants (Kd) were calculated using the total protein concentrations using the equation y=Bmax∗X/Kd+X
# [2] = molecular target: T2, LptAmD33A (Escherichia coli, UniProt P0ADV1, D33A); assay: FP direct binding assay; design: species or system E. coli
# T2 construct: His6-GB1 (N, cleaved yes); made in house; host or cells: E. coli BL21 (DE3)
# Method: as §8
# [3] = molecular target: T3, LptAmQ62L (Escherichia coli, UniProt P0ADV1, Q62L); assay: FP direct binding assay; design: species or system E. coli
# T3 construct: His6-GB1 (N, cleaved yes); made in house; host or cells: E. coli BL21 (DE3)
# Method: as §8
# [4] = molecular target: T4, LptAmQ62L, D33A (Escherichia coli, UniProt P0ADV1, D33A/Q62L); assay: FP direct binding assay; design: species or system E. coli
# T4 construct: His6-GB1 (N, cleaved yes); made in house; host or cells: E. coli BL21 (DE3)
# Method: as §8
# [5] = molecular target: T5, mLptA (Escherichia coli, UniProt P0ADV1, E39V/M47A/R76A); assay: biochemical; type: binding, E. coli
# T5 construct: the LptA25–185 mutant E39V M47A R76A was selected as the best candidate; His6-GB1 (N, cleaved yes); made in house; host or cells: E. coli BL21 (DE3)
# Method: (§1) Protein stocks were purified and concentrated in buffer 1 [50 mM Na-Pi (pH 7) and 150 mM NaCl] and, if necessary, diluted to desired concentrations using buffer 2 [50 mM Na-Pi (pH 7), 150 mM NaCl, and 0.05% Tween 20]. Peptide stocks and fluorescently labeled peptide stocks were made in buffer 2. Every serial dilution consisted of 24 wells, the first well with the highest concentrate and the last well (well 24) with the lowest. First, 50 μl of buffer 2 was added to the wells 2 to 24 of each serial dilution. Then, 100 μl of concentrated unlabeled peptide/protein in their respective buffers was added to the first well. […] Anisotropy was measured using the Tecan Safire2 plate reader using a 10-nm bandwidth and setting the excitation and emission wavelengths to 635 and 670 nm, respectively. The G-factor (G) was also determined empirically as 1.094 for the instrument and included in all the anisotropy calculations.
# (§2) For direct binding assays, fluorescence anisotropy (r) was calculated using the parallel and perpendicular polarized intensities (I) by the equation r=I∥−I⊥∗G/I∥+2I⊥∗G
# (§3) Anisotropy for the blank, the fluorescently labeled peptide only (6-FL only), was measured and subtracted from r to yield r′. […] A nonspecific binding factor (NS) was determined using a linear regression model (y = NS ∗ X + b) at the highest concentrations and incorporated into the fit.
# [6] = molecular target: T6, mLptAQ62L (Escherichia coli, UniProt P0ADV1, E39V/M47A/Q62L/R76A); assay: biochemical; type: binding, E. coli
# T6 construct: the LptA25–185 mutant E39V M47A R76A was selected as the best candidate; His6-GB1 (N, cleaved yes); made in house; host or cells: E. coli BL21 (DE3)
# Method: as §1, §2, §3
# [7] = molecular target: LptAmQ62L; conditions: read-out: Kd ± 95CI, K. pneumoniae LptAmQ62L; FP direct binding of 6-FL; triplicates; ± 95% CI of fit
# Method: (§4) Protein stocks were purified and concentrated in buffer 1 [50 mM Na-Pi (pH 7) and 150 mM NaCl] and, if necessary, diluted to desired concentrations using buffer 2 [50 mM Na-Pi (pH 7), 150 mM NaCl, and 0.05% Tween 20]. Peptide stocks and fluorescently labeled peptide stocks were made in buffer 2. Every serial dilution consisted of 24 wells, the first well with the highest concentrate and the last well (well 24) with the lowest. First, 50 μl of buffer 2 was added to the wells 2 to 24 of each serial dilution. Then, 100 μl of concentrated unlabeled peptide/protein in their respective buffers was added to the first well. Fifty microliters were taken from the first well and added to the second well for a 1:1 serial dilution and continued for the 24 wells. […] Plates were covered with adhesive seals and left to incubate overnight at 4°C before FP measurements the next day. Anisotropy was measured using the Tecan Safire2 plate reader using a 10-nm bandwidth and setting the excitation and emission wavelengths to 635 and 670 nm, respectively. The G-factor (G) was also determined empirically as 1.094 for the instrument and included in all the anisotropy calculations.
# as §2
# (§5) Anisotropy for the blank, the fluorescently labeled peptide only (6-FL only), was measured and subtracted from r to yield r′. The r′ data were normalized and fit to the One site − Total model on GraphPad Prism 9. A nonspecific binding factor (NS) was determined using a linear regression model (y = NS ∗ X + b) at the highest concentrations and incorporated into the fit.
# [8] = molecular target: LptAm; conditions: read-out: Kd ± 95CI, K. pneumoniae LptAm; FP direct binding of 6-FL; triplicates; ± 95% CI of fit
# Method: as §4, §2, §5
# [9] = molecular target: mLptA; conditions: read-out: Kd ± 95CI, K. pneumoniae mLptA; FP direct binding of 6-FL; triplicates; ± 95% CI of fit
# Method: as §4, §2, §5
# [10] = test system: E. coli ATCC 25922 (parent / WT); assay: microbe, parasite or virus in culture; conditions: CLSI method; parent strain
# Method in brief: (§6)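 First, MICs were measured per CLSI. Next, organisms underwent serial passage. Finally, resistant mutants were isolated, their MICs determined, and whole genomes sequenced with bioinformatic analysis.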
# [11] = test system: E. coli ATCC 25922 LptA Q62L mutant; assay: microbe, parasite or virus in culture; conditions: CLSI method; clone harboring LptA Q62L
# Method in brief: as §6
# [12] = test system: K. pneumoniae 968733 (CST-R); assay: MIC assay (CLSI); type: cell-based, Klebsiella pneumoniae; conditions: CLSI method; colistin-resistant strain
# Method in brief: as §6
# [13] = test system: human red blood cells; assay: Haemolysis; type: cell-based; conditions: PBS-washed human red blood cells; 1 h at 200 mg/liter, 37°C; OD 540 nm; versus 100% lysis control 2.5% Triton X-100; biological replicates
# Method: To test their hemolytic potential, compounds were incubated in the presence of phosphate-buffered saline (PBS)–washed human red blood cells. After 1-hour incubation at 200 mg/liter and 37°C, the samples were centrifuged (3220g), the supernatants were diluted in Dulbecco’s PBS, and optical density at 540 nm was determined. The hemolysis induced by the compound was calculated versus a 100% lysis control prepared with 2.5% Triton X-100 (table S4A).
# [14] = in vitro; type: cell-based; conditions: human
# Method: (§7) The cytotoxicity of compounds was determined by determining the number of viable cells using the Sigma Cell Counting Kit-8 (WST-8). HeLa cells were incubated at 37°C and 5% CO2 for 24 hours, after which the medium was replaced with fresh medium containing dilutions of compounds. […]
# [15] = test system: HeLa cells; assay: in vitro; type: cell-based
# Method: as §7
# T5 sequence (P0ADV1 25-185 E39V/M47A/R76A): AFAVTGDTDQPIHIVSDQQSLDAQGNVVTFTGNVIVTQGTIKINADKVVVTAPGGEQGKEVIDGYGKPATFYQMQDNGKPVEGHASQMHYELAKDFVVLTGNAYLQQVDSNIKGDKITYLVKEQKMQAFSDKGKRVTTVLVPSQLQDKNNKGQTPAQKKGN
# T4 sequence (P0ADV1 28-159 D33A/Q62L): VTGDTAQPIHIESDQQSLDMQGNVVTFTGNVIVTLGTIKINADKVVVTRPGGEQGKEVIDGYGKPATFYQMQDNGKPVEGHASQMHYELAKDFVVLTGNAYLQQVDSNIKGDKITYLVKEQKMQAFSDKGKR
# T6 sequence (P0ADV1 25-185 E39V/M47A/Q62L/R76A): as the sequence (P0ADV1 25-185 E39V/M47A/R76A) above, with Q38L counted along it
# T1 sequence (P0ADV1 28-159): as the sequence (P0ADV1 28-159 D33A/Q62L) above, with A6D, L35Q counted along it
# T3 sequence (P0ADV1 28-159 Q62L): as the sequence (P0ADV1 28-159 D33A/Q62L) above, with A6D counted along it
# T2 sequence (P0ADV1 28-159 D33A): as the sequence (P0ADV1 28-159 D33A/Q62L) above, with L35Q counted along it
Compound,Kd [1],Kd [2],Kd [3],Kd [4],Kd [5],Kd [6],Kd [7],Kd [8],Kd [9],MIC E. coli ATCC 25922 Parent [10],MIC E. coli ATCC 25922 Q62L mutant [11],MIC K. pneumoniae 968733 (CST-R) Parent [12],Haemolysis % at 0.2 g/L [13],IC50 at 48 h [14],IC50 [15]
CC[C@H](C)[C@H](NC(=O)[C@@H]1C[C@@H](O)CN1C(=O)[C@@H](N)C(C)C)C(=O)N[C@H](C(=O)N[C@@H](Cc1ccc(O)cc1)C(=O)N[C@@H]1C(=O)N[C@@H](CC(N)=O)C(=O)N[C@@H](CCCNC(=N)N)C(=O)N[C@@H](CCN)C(=O)N[C@@H](CCCCNC(=O)CCOCCOCCOCCOCCn2cc(CNC(=O)CCCCC[N+]3=C(/C=C/C=C/C=C4/N(CCCS(=O)(=O)O)c5ccc(S(=O)(=O)O)cc5C4(C)C)C(C)(CCCCS(=O)(=O)O)c4cc(S(=O)(=O)[O-])ccc43)nn2)C(=O)N[C@H](CCN)C(=O)N[C@@H](CCCCN)C(=O)N[C@H](C(=O)N[C@@H](CCN)C(=O)N[C@@H](CCCNC(=N)N)C(=O)N[C@@H](Cc2ccc(O)cc2)C(=O)O)CSSC1(C)C)[C@@H](C)O (stereo partly drawn) [6-FL] (H-V[Hyp]ITY[Pen]NR[Dab]K(X1)[dDab]KC[Dab]RY-OH; disulfide 6-13),6.9 ± 1.7 nM,13.8 ± 8.2 nM,73.3 ± 21.3 nM,82.4 ± 10.3 nM,968 ± 191 nM,8140 ± 1180 nM,242 ± 45.1 nM,3.7 ± 0.9 nM,453 ± 29.3 nM,,,,,,
CC[C@H](C)[C@H](NC(=O)[C@@H](NC(=O)[C@@H]1CCCN1C(=O)[C@@H](N)C(C)C)[C@@H](C)CC)C(=O)N[C@@H](Cc1ccc(O)cc1)C(=O)N[C@@H]1C(=O)N[C@@H](CC(N)=O)C(=O)N[C@@H](CCCNC(=N)N)C(=O)N[C@@H](CCN)C(=O)N[C@@H]([C@@H](C)O)C(=O)N[C@H](CCN)C(=O)N[C@@H](CCCCN)C(=O)N[C@H](C(=O)N[C@@H](CCN)C(=O)N[C@@H](CCCNC(=N)N)C(=O)N[C@@H](Cc2ccc(O)cc2)C(=O)O)CSSC1(C)C [Compound 3] (H-VPIIY[Pen]NR[Dab]T[dDab]KC[Dab]RY-OH; disulfide 6-13),,,,,,,,,,0.063 micrograms per milliliter,1 micrograms per milliliter,0.25 micrograms per milliliter,0%,41000 nM,40000 nM
